# From US20080207705A1, “Heteroaryl-Imidazole Derivatives as Cannabinoid CB1 Receptor Antagonists” (Green Cross Corporation, priority 2007, published 2008)
# Molecular target: T1, rat CB-1 receptor (Rattus norvegicus, UniProt P20272)
# T1 construct: The tissue obtained from the brain of SD rats was homogenized; from tissue; host or cells: brain of SD rats (membrane pellet of homogenate)
# Experiment: rat CB-1 receptor binding protocol with [3H]CP-55940
# Settings: not given
# T1 sequence (P20272 whole entry): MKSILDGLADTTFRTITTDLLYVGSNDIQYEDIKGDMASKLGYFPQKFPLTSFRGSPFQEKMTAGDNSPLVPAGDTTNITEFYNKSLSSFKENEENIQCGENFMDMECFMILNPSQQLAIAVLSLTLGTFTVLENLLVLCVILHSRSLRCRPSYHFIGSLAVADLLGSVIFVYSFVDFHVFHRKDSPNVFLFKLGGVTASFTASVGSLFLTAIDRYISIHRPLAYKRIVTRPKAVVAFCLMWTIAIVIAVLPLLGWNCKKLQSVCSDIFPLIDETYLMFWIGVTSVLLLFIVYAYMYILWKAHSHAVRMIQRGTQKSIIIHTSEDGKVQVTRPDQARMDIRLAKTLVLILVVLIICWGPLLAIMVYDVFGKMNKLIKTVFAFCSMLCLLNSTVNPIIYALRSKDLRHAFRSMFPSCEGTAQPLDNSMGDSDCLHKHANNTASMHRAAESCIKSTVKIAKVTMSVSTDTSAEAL
row,SMILES,IC50 [nM]
1,"Cc1c(-c2nnc(C3CCCC3)o2)nc(-c2ccc(Cl)cc2Cl)n1-c1ccc(Cl)cc1 [Example 3, 2-(1-(4-Chlorophenyl)-2-(2,4-dichlorophenyl)-5-methyl-1H-imidazol-4-yl)-5-cyclopentyl-1,3,4-oxadiazole]",35.3
2,"CCCC(C)c1nnc(-c2nc(-c3ccc(Cl)cc3Cl)n(-c3ccc(Cl)cc3)c2C)o1 (stereo not shown) [Example 7, 2-(1-(4-Chlorophenyl)-2-(2,4-dichlorophenyl)-5-methyl-1H-imidazol-4-yl)-5-(pentan-2-yl)-1,3,4-oxadiazole]",14.2
3,"Cc1c(-c2nnc(C(C)C)o2)nc(-c2ccc(Cl)cc2Cl)n1-c1ccc(Cl)cc1 [Example 9, 2-(1-(4-Chlorophenyl)-2-(2,4-dichlorophenyl)-5-methyl-1H-imidazol-4-yl)-5-isopropyl-1,3,4-oxadiazole]",25.8
4,"Cc1c(-c2nnc(C(C)c3ccccc3)o2)nc(-c2ccc(Cl)cc2Cl)n1-c1ccc(Cl)cc1 (stereo not shown) [Example 11, 2-(1-(4-Chlorophenyl)-2-(2,4-dichlorophenyl)-5-methyl-1H-imidazol-4-yl)-5-(1-phenylethyl)-1,3,4-oxadiazole]",31.4
5,"CCc1c(-c2nnc(C(C)(C)C)o2)nc(-c2ccc(Cl)cc2Cl)n1-c1ccc(Cl)cc1 [Example 15, 2-tert-butyl-5-(1-(4-chlorophenyl)-2-(2,4-dichlorophenyl)-5-ethyl-1H-imidazol-4-yl)-1,3,4-oxadiazole]",18.1
6,"Cc1c(-c2nnc(C3CCCCC3)o2)nc(-c2ccc(Cl)cc2Cl)n1-c1ccc(Br)cc1 [Example 19, 2-(1-(4-Bromophenyl)-2-(2,4-dichlorophenyl)-5-methyl-1H-imidazol-4-yl)-5-cyclohexyl-1,3,4-oxadiazole]",70
7,"Cc1c(-c2nnc(C3CCC3)o2)nc(-c2ccc(Cl)cc2Cl)n1-c1ccc(Br)cc1 [Example 22, 2-(1-(4-Bromophenyl)-2-(2,4-dichlorophenyl)-5-methyl-1H-imidazol-4-yl)-5-cyclobutyl-1,3,4-oxadiazole]",29.3
8,"CC(C)c1c(-c2nnc(C(C)(C)C)o2)nc(-c2ccc(Cl)cc2Cl)n1-c1ccc(Br)cc1 [Example 25, 2-(1-(4-Bromophenyl)-2-(2,4-dichlorophenyl)-5-isopropyl-1H-imidazol-4-yl)-5-tert-butyl-1,3,4-oxadiazole]",21.2
9,"CCc1c(-c2nnc(C3(c4ccccc4)CC3)o2)nc(-c2ccc(Cl)cc2Cl)n1-c1ccc(Br)cc1 [Example 27, 2-(1-(4-Bromophenyl)-2-(2,4-dichlorophenyl)-5-ethyl-1H-imidazol-4-yl)-5-(1-phenylcyclopropyl)-1,3,4-oxadiazole]",9.14

# Same assay, conditions: [3H]CP-55940, brain tissue of SD rats, 30 °C for 60 min; read-out: IC50
row,SMILES,IC50 [nM]
1,"Cc1c(-c2nnc(C3CCCCC3)o2)nc(-c2ccc(Cl)cc2Cl)n1-c1ccc(Cl)cc1 [Example 2, 2-(1-(4-Chlorophenyl)-2-(2,4-dichlorophenyl)-5-methyl-1H-imidazol-4-yl)-5-cyclohexyl-1,3,4-oxadiazole]",115
2,"CC(C)(C)c1nnc(-c2nc(-c3ccc(Cl)cc3Cl)n(-c3ccc(Cl)cc3)c2C2CC2)o1 [Example 24, 2-tert-Butyl-5-(1-(4-chlorophenyl)-5-cyclopropyl-2-(2,4-dichlorophenyl)-1H-imidazol-4-yl)-1,3,4-oxadiazole]",79.9
3,"CCCc1c(-c2nnc(C(C)(C)C)o2)nc(-c2ccc(Cl)cc2Cl)n1-c1ccc(Br)cc1 [Example 29, 2-(1-(4-Bromophenyl)-2-(2,4-dichlorophenyl)-5-propyl-1H-imidazol-4-yl)-5-tert-butyl-1,3,4-oxadiazole]",71.5
4,"CCCc1c(-c2nnc(C3CCCCC3)o2)nc(-c2ccc(Cl)cc2Cl)n1-c1ccc(Br)cc1 [Example 30, 2-(1-(4-Bromophenyl)-2-(2,4-dichlorophenyl)-5-propyl-1H-imidazol-4-yl)-5-cyclohexyl-1,3,4-oxadiazole]",392
5,"CCCc1c(-c2nnc(C3CCC3)o2)nc(-c2ccc(Cl)cc2Cl)n1-c1ccc(Br)cc1 [Example 32, 2-(1-(4-Bromophenyl)-2-(2,4-dichlorophenyl)-5-propyl-1H-imidazol-4-yl)-5-cyclobutyl-1,3,4-oxadiazole]",68.9

# Further lines, results first:
row,IC50 [nM],SMILES
1,13.2,"Cc1c(-c2nnc(C(C)(C)C)o2)nc(-c2ccc(Cl)cc2Cl)n1-c1ccc(Cl)cc1 [Example 1, 2-tert-Butyl-5-(1-(4-chlorophenyl)-2-(2,4-dichlorophenyl)-5-methyl-1H-imidazol-4-yl)-1,3,4-oxadiazole]"
2,38.7,"Cc1c(-c2nnc(C3CCC3)o2)nc(-c2ccc(Cl)cc2Cl)n1-c1ccc(Cl)cc1 [Example 4, 2-(1-(4-Chlorophenyl)-2-(2,4-dichlorophenyl)-5-methyl-1H-imidazol-4-yl)-5-cyclobutyl-1,3,4-oxadiazole]"
3,27.6,"Cc1c(-c2nnc(C3CCCCCC3)o2)nc(-c2ccc(Cl)cc2Cl)n1-c1ccc(Cl)cc1 [Example 5, 2-(1-(4-Chlorophenyl)-2-(2,4-dichlorophenyl)-5-methyl-1H-imidazol-4-yl)-5-cycloheptyl-1,3,4-oxadiazole]"
4,12.9,"CCCCC(C)c1nnc(-c2nc(-c3ccc(Cl)cc3Cl)n(-c3ccc(Cl)cc3)c2C)o1 (stereo not shown) [Example 6, 2-(1-(4-Chlorophenyl)-2-(2,4-dichlorophenyl)-5-methyl-1H-imidazol-4-yl)-5-(hexan-2-yl)-1,3,4-oxadiazole]"
5,39.4,"CCC(C)c1nnc(-c2nc(-c3ccc(Cl)cc3Cl)n(-c3ccc(Cl)cc3)c2C)o1 (stereo not shown) [Example 8, 2-sec-Butyl-5-(1-(4-chlorophenyl)-2-(2,4-dichlorophenyl)-5-methyl-1H-imidazol-4-yl)-1,3,4-oxadiazole]"
6,22.3,"CCC(CC)c1nnc(-c2nc(-c3ccc(Cl)cc3Cl)n(-c3ccc(Cl)cc3)c2C)o1 [Example 10, 2-(1-(4-Chlorophenyl)-2-(2,4-dichlorophenyl)-5-methyl-1H-imidazol-4-yl)-5-(pentan-3-yl)-1,3,4-oxadiazole]"
7,48.4,"CCc1c(-c2nnc(C3CCCCC3)o2)nc(-c2ccc(Cl)cc2Cl)n1-c1ccc(Cl)cc1 [Example 12, 2-(1-(4-Chlorophenyl)-2-(2,4-dichlorophenyl)-5-ethyl-1H-imidazol-4-yl)-5-cyclohexyl-1,3,4-oxadiazole]"
8,25.8,"CCc1c(-c2nnc(C3CCCC3)o2)nc(-c2ccc(Cl)cc2Cl)n1-c1ccc(Cl)cc1 [Example 13, 2-(1-(4-Chlorophenyl)-2-(2,4-dichlorophenyl)-5-ethyl-1H-imidazol-4-yl)-5-cyclopentyl-1,3,4-oxadiazole]"
9,34.1,"CCc1c(-c2nnc(C3CCC3)o2)nc(-c2ccc(Cl)cc2Cl)n1-c1ccc(Cl)cc1 [Example 14, 2-(1-(4-Chlorophenyl)-2-(2,4-dichlorophenyl)-5-ethyl-1H-imidazol-4-yl)-5-cyclobutyl-1,3,4-oxadiazole]"
10,11.2,"CCCCC(C)c1nnc(-c2nc(-c3ccc(Cl)cc3Cl)n(-c3ccc(Cl)cc3)c2CC)o1 (stereo not shown) [Example 16, 2-(1-(4-Chlorophenyl)-2-(2,4-dichlorophenyl)-5-ethyl-1H-imidazol-4-yl)-5-(hexan-2-yl)-1,3,4-oxadiazole]"
11,11.5,"CCCC(C)c1nnc(-c2nc(-c3ccc(Cl)cc3Cl)n(-c3ccc(Cl)cc3)c2CC)o1 (stereo not shown) [Example 17, 2-(1-(4-Chlorophenyl)-2-(2,4-dichlorophenyl)-5-ethyl-1H-imidazol-4-yl)-5-(pentan-2-yl)-1,3,4-oxadiazole]"
12,17.9,"CCc1c(-c2nnc(C(C)CC)o2)nc(-c2ccc(Cl)cc2Cl)n1-c1ccc(Cl)cc1 (stereo not shown) [Example 18, 2-sec-Butyl-5-(1-(4-chlorophenyl)-2-(2,4-dichlorophenyl)-5-ethyl-1H-imidazol-4-yl)-1,3,4-oxadiazole]"
13,5.81,"Cc1c(-c2nnc(C(C)(C)C)o2)nc(-c2ccc(Cl)cc2Cl)n1-c1ccc(Br)cc1 [Example 20, 2-(1-(4-Bromophenyl)-2-(2,4-dichlorophenyl)-5-methyl-1H-imidazol-4-yl)-5-tert-butyl-1,3,4-oxadiazole]"
14,3.15,"CCc1c(-c2nnc(C(C)(C)C)o2)nc(-c2ccc(Cl)cc2Cl)n1-c1ccc(Br)cc1 [Example 21, 2-(1-(4-Bromophenyl)-2-(2,4-dichlorophenyl)-5-ethyl-1H-imidazol-4-yl)-5-tert-butyl-1,3,4-oxadiazole]"
15,24.1,"CCc1c(-c2nnc(C3CCC3)o2)nc(-c2ccc(Cl)cc2Cl)n1-c1ccc(Br)cc1 [Example 23, 2-(1-(4-Bromophenyl)-2-(2,4-dichlorophenyl)-5-ethyl-1H-imidazol-4-yl)-5-cyclobutyl-1,3,4-oxadiazole]"
16,10.3,"CC(C)c1c(-c2nnc(C3(c4ccccc4)CC3)o2)nc(-c2ccc(Cl)cc2Cl)n1-c1ccc(Br)cc1 [Example 26, 2-(1-(4-Bromophenyl)-2-(2,4-dichlorophenyl)-5-isopropyl-1H-imidazol-4-yl)-5-(1-phenylcyclopropyl)-1,3,4-oxadiazole]"
17,15.5,"CC(C)c1c(-c2nnc(C3(c4ccccc4)CC3)o2)nc(-c2ccc(Cl)cc2Cl)n1-c1ccc(Cl)cc1 [Example 28, 2-(1-(4-Chlorophenyl)-2-(2,4-dichlorophenyl)-5-isopropyl-1H-imidazol-4-yl)-5-(1-phenylcyclopropyl)-1,3,4-oxadiazole]"
18,46.1,"CCCc1c(-c2nnc(C3(c4ccccc4)CC3)o2)nc(-c2ccc(Cl)cc2Cl)n1-c1ccc(Br)cc1 [Example 31, 2-(1-(4-Bromophenyl)-2-(2,4-dichlorophenyl)-5-propyl-1H-imidazol-4-yl)-5-(1-phenylcyclopropyl)-1,3,4-oxadiazole]"
19,19.2,"CCCc1c(-c2nnc(C3(c4ccc(Cl)cc4)CC3)o2)nc(-c2ccc(Cl)cc2Cl)n1-c1ccc(Br)cc1 [Example 33, 2-(1-(4-Bromophenyl)-2-(2,4-dichlorophenyl)-5-propyl-1H-imidazol-4-yl)-5-(1-(4-chlorophenyl)cyclopropyl)-1,3,4-oxadiazole]"
20,9.05,"CCCc1c(-c2nnc(C3(c4ccc(Cl)cc4)CCC3)o2)nc(-c2ccc(Cl)cc2Cl)n1-c1ccc(Br)cc1 [Example 34, 2-(1-(4-Bromophenyl)-2-(2,4-dichlorophenyl)-5-propyl-1H-imidazol-4-yl)-5-(1-(4-chlorophenyl)cyclobutyl)-1,3,4-oxadiazole]"
